Measurements published in the METLIN SMRT retention time set (Domingo-Almenara et al. 2019).

Test: gradient 5% acetonitrile 3 min, to 50% in 2 min, to 85% in 15 min, held 3 min, 100 µL/min
Conditions: column: Zorbax Extend-C18 2.1 x 50 mm; eluents: water / acetonitrile, 0.1% formic acid
Method in brief: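 Retention times come from adduct peaks that were picked computationally and then checked by hand. The standards, pure and pooled in mixtures of ~100 molecules, were run on a Zorbax Extend-C18 column (2.1 × 50 mm, 1.8 μm) at 100 μL/min with water and acetonitrile, each with 0.1% formic acid. Detection was by quadrupole time-of-flight mass spectrometry in positive and negative ionization mode, with a dead volume of 40 μL and a dwell volume of 900 μL.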

RP-LC retention time [s] | Compound
630 | O=C(c1cccnc1)c1cc(-c2ccccn2)c(=O)n2ccccc12
1160 | O=C(NC1CCCCC1)c1nc(-c2ccc(N3CCCC3)cc2)no1
860 | Brc1cccc(-c2nc3ncccn3c2NCc2ccccc2)c1
1060 | CN(C)c1ccc(-c2nc(-c3cn(-c4ccc(F)cc4)nn3)no2)cc1
592 | COC(=O)c1c(C)[nH]c(C(=O)N2CCCC(C(=O)NCCCN3CCCCCC3)C2)c1C (stereo not drawn)
1160 | CCCNC(=O)C1CCN(c2ccc(SCC(=O)Nc3ccc(C)cc3Cl)nn2)CC1
790 | COCCNc1nc(-c2ccc(C(C)(C)C)cc2)nc2ccccc12
685 | CC(=O)Nc1c(C)nn(-c2ccc(Cl)cc2)c1N1CCC(C(=O)NCc2ccco2)CC1
572 | CCOc1ccccc1C(=O)NCC(c1ccc(N(C)C)cc1)N(C)C (stereo not drawn)
903 | Cc1cccc(N2C(=O)CN(S(C)(=O)=O)CC2(C)C(=O)NCc2ccc(Cl)cc2)c1C (stereo not drawn)
651 | Cc1cc(=O)n(CC(=O)Nc2ccc(F)cc2F)c(N2CCOCC2)n1
753 | Cc1nc(CCNC(=O)C2CCN(S(=O)(=O)c3ccccc3C(F)(F)F)CC2)cs1
787 | Cc1ccc(Nc2c(-c3ccccc3)nc3ccc(Cl)cn23)cc1
1020 | CC1CCc2cc(F)ccc2N1C(=O)C12CCC(C1)C(C)(C)C2=O (stereo not drawn)
1030 | CCc1nc(-c2ccc3c(c2)CCN3C(=O)Cc2cccc(F)c2)no1
728 | Cc1cc(C)c(NC(=O)Cn2cnc3nc(N4CCCC(C(=O)NC(C)C)C4)sc3c2=O)c(C)c1 (stereo not drawn)
972 | Cc1ccc(CNC(=O)NCc2c(C)nn(-c3ccccc3)c2-n2cccc2)cc1
1260 | O=C(Cc1ccc(S(=O)(=O)N2CCN(c3ccccn3)CC2)s1)N1CCOCC1
832 | CCOC(=O)c1[nH]c(C)c(CCC(=O)N2CCC(C(=O)NCc3ccccc3OCC)CC2)c1C
611 | Cc1cc(C(=O)Nc2c3c(nn2C)CCC3)no1
718 | Cc1nnc(-c2ccc3ccn(CC(=O)NC(C)(C)C)c3c2)o1
741 | CCC(=O)N1CCCn2nc(-c3ccc(F)cc3)cc2C1

RP-LC retention time [s] | Compound
1150 | Brc1cccc(-c2noc(-c3nc(-c4ccncc4)no3)n2)c1
883 | Cc1cccc(NC(=O)C2CCCN(S(=O)(=O)c3c[nH]c(C(=O)N4CCCCCC4)c3)C2)c1C (stereo not drawn)
696 | CN1CCCn2cc(S(=O)(=O)Nc3ccc(F)cc3Cl)cc2C1=O
766 | O=C(Cc1ccc(NS(=O)(=O)c2ccc3c(c2)CCCC3)cc1)NC1CC1
876 | O=C(c1ccccc1F)N1CCC2(CC1)N=C(c1ccc(Cl)cc1)NO2
520 | CCn1c(=O)c(C(=O)N2CCN(C3CCCCC3)CC2)nc2cccnc21
663 | CCNC(=O)C1CCc2sc(C(=O)N3CCCC3)cc2C1 (stereo not drawn)
636 | CCc1ccc2c(C)nc(NC3=NC(C)(C)C=C(C)N3)nc2c1
822 | CCN1CCN(c2cc(-c3nc(-c4ccccc4)no3)c3ccccc3n2)CC1
702 | Cc1nnc(N2CCCC(C(=O)NCc3cccs3)C2)c2nn(-c3ccccc3)c(C)c12 (stereo not drawn)
627 | COc1ccc(Cl)c2c(=O)c3c([nH]c12)CCN(CC(=O)Nc1cccc(C)c1)C3
939 | CN1C(=O)C2CCCCN2c2ccc(C(=O)NCCCc3ccccc3)cc21 (stereo not drawn)
1020 | CC(C)CN1CCn2cc(S(=O)(=O)Nc3ccc(F)cc3)cc2C1=O
876 | Cn1nnc2ccc(-c3noc(-c4ccccc4F)n3)cc21
812 | Cc1ccsc1C(=O)N1CCC(c2nc(CCOCC3CC3)no2)C1 (stereo not drawn)
904 | CCOc1ccc(NC(=O)c2cnc3c(c2)c(=O)n(C)c(=O)n3-c2ccccc2)cc1
773 | CC1CN(C2CCCCC2)c2nc3c(c(=O)n(CC(=O)O)c(=O)n3C)n2C1 (stereo not drawn)
667 | CCc1ccc(S(=O)(=O)Nc2cccc(-c3cn4c(C)cccc4n3)c2)cc1
705 | CCC1CN2C=NC(N3CCN(S(=O)(=O)c4cc(Cl)ccc4OC)CC3)=CC2=N1 (stereo not drawn)
854 | O=C(NC1(c2nc(-c3cccnc3)no2)CCCCC1)c1n[nH]c2c1CCCC2
920 | Cc1ccc(-c2noc(Cn3ccn(-c4cccc(Cl)c4)c(=O)c3=O)n2)cc1
824 | O=C1NCCCCCCN(C(=O)c2ccco2)[C@H]2C[C@H](C(=O)N3CCc4ccccc4C3)C[C@@H]12

RP-LC retention time [s] | Compound
741 | O=C(NC1CC1)c1ccc(OCC2CCCN2C(=O)C2CCC2)cc1 (stereo not drawn)
634 | Cc1ccn2cc(-c3ccc(NC(=O)c4ccccc4F)cc3)nc2n1
812 | COc1ccccc1N1CCN(C[C@@H](C(=O)NC(C)(C)C)c2ccccc2)CC1
629 | CCCOc1ccc(CN2CCC3(CCC3O)CC2)cc1OC (stereo not drawn)
616 | Cc1ccccc1CC(=O)N1CCC(c2nc(C(=O)N3CCOCC3)c(C)o2)CC1
926 | COC(=O)c1cccc(NC(=O)CSc2cc(N3CCN(c4ccccc4OC)CC3)ncn2)c1
876 | COc1ccc(-c2csc(Nc3ccc(C(=O)O)cc3)n2)cc1
817 | Cc1nc(OCC(=O)Nc2cccc(C(F)(F)F)c2)c2ccccc2n1
623 | O=C(NCc1ccc(Br)cc1)C1CCCN(C(=O)c2cc(-c3ccncc3)n[nH]2)C1 (stereo not drawn)
666 | COCCn1ccc2nc(C)c(C(=O)Nc3ccc4c(c3)OCO4)cc2c1=O
788 | CCOc1ccc(NC(=O)c2c(C)oc3nc(C)nc(N4CCCC4)c23)cc1
784 | CC(=O)N1CCc2cc(S(=O)(=O)Nc3ccc4c(c3)-c3nc(C)sc3CC4)ccc21
639 | COc1cc2c(cc1O)[C@@H](Cc1ccc(O)c(Oc3ccc(C[C@@H]4c5cc(OC)c(OC)cc5CCN4C)cc3)c1)N(C)CC2
618 | Cc1ccc(-c2nc3cnccn3c2NCCC(=O)NC(C)C)cc1
865 | CN(C)c1ccc(C(=O)N2CCN(c3cc(-c4ccc(Cl)cc4)[nH]n3)CC2)cc1
572 | CN(C)CC1CN(C(=O)c2cc(F)ccc2F)CC12CCOCC2 (stereo not drawn)
560 | CCc1[nH]nc(S(=O)(=O)N2CCN(c3ccccn3)CC2)c1C(=O)OC
808 | O=S(=O)(c1cccn2c(SCc3ccccc3)nnc12)N1CCCC1
834 | Cc1cc(S(=O)(=O)N2CC(c3nc(-c4ncccn4)no3)C2)c(Cl)cc1Cl
808 | C/C=C1\NC(=O)[C@H]2CSSCC/C=C/[C@H](CC(=O)N[C@H](C(C)C)C(=O)N2)OC(=O)C(C(C)C)NC1=O (stereo partly drawn)
779 | COc1ccc(OC)c(CNC(=O)Cc2csc3nc(-c4ccccc4)cn23)c1
803 | COc1ccc(NC(=O)N2CCC(n3cnc4ccc(Cl)cc4c3=O)CC2)c(OC)c1

RP-LC retention time [s] | Compound
713 | O=C(Nc1ccc(F)cc1F)c1ccc2ncsc2c1
694 | Cn1nc(CNC(=O)C2(c3ccccc3)CC2)c2c1CCN(S(C)(=O)=O)C2
911 | Cc1nc(N2CCOCC2)c2c(C(=O)Nc3ccccc3Cl)c(C)oc2n1
659 | CCc1ccccc1NC(=O)Cn1c(N2CCCC2)nc(C)cc1=O
912 | O=C(NCCOc1ccc(F)cc1)C(=O)Nc1ccc(Cl)cn1
957 | CCOC(=O)c1ccc(NC(=O)c2ccc3c(c2)N(CC)C2CCCCN2C3=O)cc1 (stereo not drawn)
866 | C#CCOCC1CCN(S(=O)(=O)c2ccccc2)CC1
736 | O=C(CC1CCCC1)NCCc1nc2cccnc2n1-c1ccccc1
580 | Cc1cc(N2CCN(C)CC2)nc(N2CCN(S(=O)(=O)c3ccc(Br)cc3)CC2)n1
946 | COc1ccc(-c2nnc(COc3ccc(NC(=O)C4CCCC4)cc3)o2)cc1
778 | Cn1c(=O)c2nc(S(=O)(=O)CCC(=O)Nc3cc(F)ccc3Cl)n(C)c2n(C)c1=O
728 | CCCN(CC1CCOC1)C(=O)Nc1ccccc1F (stereo not drawn)
951 | O=S(=O)(c1ccccc1Cl)N1CC(c2nc(Cc3ccccc3)no2)C1
946 | Cc1cccn2cc(C(=O)N3CCN(c4ccc(Cl)cc4)CC3)nc12
1060 | CCCn1c(=O)c2cc(C(=O)NCCCc3ccccc3)nn2c2ccccc21
648 | CC(C(=O)NCCCN1CCOCC1)C1CCN(C(=O)c2cc3cc(Cl)ccc3[nH]2)CC1 (stereo not drawn)
754 | CCc1cccc(NC(=O)Cn2c(=O)nc(N3CCCCC3)c3ccccc32)c1
822 | CCOc1ccc(-c2nc(CNC(=O)Nc3ccc(OC)c(OC)c3)c(C)o2)cc1
931 | CCOCCCNC(=O)c1c2c(cn(-c3ccc(Cl)cc3)c1=O)C(=O)CC(C)(C)C2
583 | CCOC(=O)CCNC(=O)N1CCOc2ccc(N(C)C)cc2C1
1170 | Cc1ccc(NS(=O)(=O)c2cccnc2Nc2ccc(Cl)cc2)cc1

Compound | RP-LC retention time [s]
COc1ccc2c(c1)C1(CCN(C(=O)NCCC(C)C)C1)C(=O)N2 (stereo not drawn) | 716
